The text below walks through data of US5679663A, “Pharmaceutical compounds” (priority 1996, dated 1997).

Where a name gives a salt, the structure may show the parent alone.

Series [1] relates to learned helplessness (avoidance reaction). Kind of series: Learned helplessness model (avoidance reaction, shuttle chamber). It is filed as in vivo, mice. Conditions: for Average latence of avoidance period / Percent of nonavoidance from total test number / Average latence of avoidable period: CAPAH 90 mg/kg, melipramine 7 mg/kg, i.p. How it is done:
The phenomenon of learned helplessness is that exposure to uncontrollable stress produces deficits in subsequent learning tasks. The preliminary non-avoidable aversive phase of the test was carried out in dark chambers (30 cm×15 cm×15 cm) with electrodes in the floor. Mice were placed into the chambers individually where they received a number of stimuli (150 mkA, 60 Hz) for 6 seconds with 30 second intervals. Exposure lasted for 40 minutes. 24 hours later the animals were tested in a "shuttle" chamber which consisted of two compartments with the electrode floor connected by the opening situated 1 cm above the base. The entrance to the neighbouring compartment was blocked by a door operated automatically. Stimulation (150 mkA) was directed in turn to each compartment with 30 second intervals and 4 seconds lag. After 10 sessions the door was closed and electric current stopped. The average summary latent time of avoidance was estimated as well as the total number of non-fulfilled reactions.
Experiments were carried out in 40 male […] weighing 18-20 g. Melipramine was used as a standard preparation. Preparations were injected intraperitoneally in doses: CAPAH--90 mg/kg, melipramine--7 mg/kg. Control animals received an equal quantity of distilled water. In the first control group (control 1) mice were not exposed to non-avoidable aversive stimulations; in the second control group (control 2) the animals were exposed to the preliminary non-avoidable aversive influence but without drug preparations.

Series [2] has as its system L-dopa induced hypothermia and motor activity. Briefly: Interaction with L-dopa (hypothermia, depression and reduction of motor activity). It is filed as in vivo. As to conditions: 100 mg/kg; L-dopa 150 mg/kg, mice. How it is done:
L-3,4-dihydroxyphenylalanine (L-dopa) was administered in a 150 mg/kg dose, which induces hypothermia, depression and reduction of motor activity.

For series [3], the system named is hypoxia induced by sodium nitrite. Briefly: Lifetime following hypoxia induced by sodium nitrite. The class given is in vivo, white mice. As to conditions: 90 mg/kg i.p. How it is done: (§1) The potential of CAPAH to provide neuroprotection following a stroke was illustrated by its anti-hypoxic properties in mice using both hypoxia induced directly by lack of oxygen in the atmosphere and hypoxia induced by sodium nitrite injection.
White mice in groups of eight with a weight in the range of 18 to 21 grams were injected subcutaneously with 300 mg/kg of aqueous sodium nitrite and their subsequent lifetime was recorded. A control group of mice received no additional pre-treatment but a second group received a prior intraperitoneal injection of 90 mg/kg CAPAH.

The subject of series [4] is haloperidol-induced catalepsy. Kind of series: Impact on catalepsy caused by haloperidol. The class given is in vivo. As to conditions: 100 mg/kg. How it is done: Catalepsy was evaluated from the animal's ability to maintain an awkward posture (hind legs placed on a 30 mm high pedestal and forelegs on the bench) for 90 seconds at intervals of 10, 60 and 120 minutes after the latest administration of haloperidol.

For series [5], the system named is mice immobilization (behavioural despair). Briefly: Behavioural despair model (duration of immobilization, swimming). The class given is in vivo, mice (tetrahybrids SVA). Conditions: 90 mg/kg; for Duration of mice immobilization, behavioural despair test: 6 minutes of observation. How it is done: In this test, mice (tetrahybrids SVA) were obliged to swim in a limited space, presented as a cylindrical vessel which was 15 cm high containing a water level of 6 cm maintained at a temperature of 21° C. A "slowing down" of swimming activity was observed. This "slowing down" is regarded to reflect the state of lowering of spirits and increasing despair of the mice. The slowing down is diminished by anti-depressants.
CAPAH was investigated in acute and chronic application (for 10 days). The mean duration of animal immobility for 6 minutes of observation was estimated in seconds.
CAPAH was injected in a dose of 90 mg/kg 40 minutes before the experiment.

Series [6] has as its system hypoxia induced by direct lack of oxygen. Briefly: Lifetime following hypoxia induced by direct lack of oxygen. The class given is in vivo, white mice. How it is done: as §1
White mice in groups of six with a standard weight of 18 grams were placed in hermetically sealed jars and the lifetime of the animals was recorded.

Series [7] in a line: Pharmacological investigation (central nervous system). Conditions: in vivo.
Series [8] concerns scopolamine induced amnesia. Briefly: Scopolamine induced amnesia, passive avoidance test. The class given is in vivo, Mongolian Gerbil. How it is done: (§2) The protective effect of the compound CAPAH was studied in relation to both scopolamine and hypoxia induced amnesia in gerbils by the passive avoidance test.
(§3) Gerbils underwent a training schedule of "passive avoidance", i.e. they learned not to enter a dark compartment into which an electric shock was delivered.
Scopolamine Induced Amnesia
Gerbils received an intra-peritoneal injection of scopolamine (0.5 mg/kg) 30 minutes before the training procedure. The ability of CAPAH, given prior to scopolamine, to prevent the induced amnesia was determined.
(§4) The gerbils were trained as described above in a step-down type passive avoidance apparatus (Model E13-08, Coulbourn Instruments, Lehigh Valley, USA), divided into a safe part and a grill part. […] Training of the passive avoidance was carried out for 5 minutes. The gerbils were placed on the safety platform and received a series of mild electric shocks, […] (shock sensitivity determined for each batch of gerbils) for 3 seconds every 6 seconds when it stepped off the grill. Gerbils were returned to the apparatus for testing 24 hours later and their step-down latencies to the grill floor (recall latency) were recorded (maximum 60 seconds).
(§5) In both these series of experiments Piracetam was used as a control.

Series [9] in a line: Toxicity (LD100, LD50, MTD). It is filed as in vivo. As to conditions: for LD50 / MTD: in vivo; for LD50 / MTD / LD100: species and route not given; for MTD: read-out: MTD (maximum tolerance dose).
The test system of series [10] is apomorphine-induced hypothermia. Briefly: Apomorphine-induced hypothermia in mice. The class given is in vivo. Conditions: 90 mg/kg, 40 min before apomorphine 25 mg/kg s.c. How it is done:
The effect of CAPAH on apomorphine-induced hypothermia and stereotypy was evaluated. The hypothermia was induced by subcutaneously injecting mice with 25 mg/kg of apomorphine. The change in skin temperature was recorded by a TPEM-1 thermometer immediately before injecting with apomorphine and also 60 and 120 minutes after the administration.
(§6) Stereotypy in rats was induced by subcutaneous administration of 20 mg/kg of apomorphine. The total duration of the stereotypy episode was evaluated and also the intensity of individual components thereof (licking, gnawing, sniffing). CAPAH was administered 40 minutes before the apomorphine as a 90 mg/kg dose to the mice and 100 mg/kg dose to the rats.

The subject of the next series is hypoxia induced amnesia. Kind of series: Hypoxia induced amnesia, passive avoidance test. The class given is in vivo, Mongolian Gerbil.
Source text: as §2, §3
The gerbils were trained as described above. To produce a hypoxic environment a gas-mixture (4% oxygen, 96% nitrogen) was blown through a plastic box (12 l/min). Immediately after the training period the gerbil was put into this hypoxic environment and removed when gasping was shown (maximum stay in the hypoxic box is 40 seconds).
as §4, §5

Series [11] relates to apomorphine-induced stereotypy. Briefly: Apomorphine-induced stereotypy in rats. As to conditions: 100 mg/kg, 40 min before apomorphine 20 mg/kg s.c. It is filed as in vivo. How it is done: as §6
A short description of a further series: Solubility. Conditions: for solubility compared with the compound described under (A): relative to Example 5(A).
The conditions of series [12]: U.S. Pat. Nos. 4,162,264 and 4,162,311; cited from earlier work.

As to `CN(C)c1ccc(P(=O)(CC(=O)NN)OCCCl)cc1` (stereo not drawn) [CAPAH, (2-chloroethoxy)(p-N,N-dimethylaminophenyl)phosphinylacetohydrazide], the “anti-depressant effects, learned helplessness” value in series [1] (90 mg/kg, single and chronic treatment) was “marked anti-depressant effects”. Moreover, in series [1] (6-fold injection), the “Average latence of avoidance period” value is 9.0 ± 0.7. For the same compound, the “Percent of nonavoidance from total test number” value (“Percent of nonavoidance” for short) in series [1] (6-fold injection) was found to be 2%; in series [1] (12-fold injection), 1.3%; in series [1] (single injection), 19%. Besides, the “Average latence of avoidable period” value in series [1] (12-fold injection) was 7.9 ± 0.7; in series [1] (single injection), 12.1 ± 1.5. Also, the “activity on L-dopa induced effects” value in series [2] is “no activity”. Also, in series [3], the “effect on lifetime, hypoxia induced by sodium nitrite” value is given as “extension of lifetime”. In [3] (sodium nitrite 300 mg/kg s.c.), the “Lifetime (± deviation), hypoxia induced by sodium nitrite” value worked out at 16.9 ± 1.0 min. Besides, in series [4], the dopamine-mimetic activity entry is “reveals dopamine-mimetic activity”. In [4] (haloperidol 5 mg/kg hypodermic injection), the “effect on haloperidol induced catalepsy” value was “reduces haloperidol induced catalepsy”. The “duration of "slowing down" (anti-depressant activity)” value in [5] (repeated application) was “lessens the duration of "slowing down"”. Further, the “Duration of mice immobilization, behavioural despair test” value in series [5] (repeated injection (10 days)) is reported as 177.5 ± 17.5; in series [5] (single injection, 40 min before), 210 ± 22.5 s. Besides, the “Lifetime (± deviation), hypoxia by direct lack of oxygen” value in series [6] (30 mg/kg i.p., second experiment) is 16.4 ± 1.2 min; in [6] (45 mg/kg i.p., first experiment), 18.8 ± 1.1 min; in series [6] (90 mg/kg i.p., first experiment) it was 17.0 ± 0.1 min. Also, the “effect on lifetime, hypoxia by direct lack of oxygen” value in series [6] (90 or 45 mg/kg) is on record as “extension of lifetime”. Besides, in series [7], the “effect on the central nervous system” value is listed as “selectively affects the central nervous system”. Further, the “Latency (sec ± SEM), scopolamine induced amnesia” value in [8] (1 mg/kg) was 35 ± 17 s; in [8] (10 mg/kg), 52 ± 21 s; in series [8] (30 mg/kg) it was 36 ± 17 s; in series [8] (100 mg/kg), 49 ± 16 s; in series [8] (300 mg/kg), 76 ± 30 s. Besides, the “memory enhancement in scopolamine-induced amnesia” value in [8] (lower doses (below 300 mg/kg)) is “a trend towards memory enhancement”. For the same compound, the “reversal of scopolamine-induced amnesia” value in [8] (only at 300 mg/kg) is given as “Statistically significant reversal”. Further, in [9] (comparison with DPAH), the “interval between the maximum tolerance dose (MTD) and the LD100” value was “significantly greater interval”. In [9] (comparison with DPAH), the “toxicity compared with DPAH” value was “less toxic”. The LD50 in series [9] amounted to 960 ± 35 mg/kg. For the same compound, in series [9], the maximum tolerated dose (MTD) is 700 mg/kg. Besides, the LD100 in [9] came to 1200 mg/kg. The “effect on apomorphine-induced hypothermia” value in [10] is listed as “no effect”. For the same compound, the “Latency (sec ± SEM), hypoxia induced amnesia” value is 135 ± 21 s in the series on hypoxia induced amnesia (1 mg/kg); 111 ± 25 s in the series with hypoxia induced amnesia (10 mg/kg); 71 ± 28 s in the series with hypoxia induced amnesia (30 mg/kg); 119 ± 23 s in the series on hypoxia induced amnesia (100 mg/kg); 20 ± 8 s in the series on hypoxia induced amnesia (300 mg/kg). Further, the “toxicity of the dose” value with hypoxia induced amnesia (300 mg/kg (1/3 DL50)) is listed as “toxic”. The “activity in hypoxia induced amnesia test” value in the series with hypoxia induced amnesia (doses 1, 10, 100 mg/kg) is recorded as “active”; in the series on hypoxia induced amnesia (doses 30, 300 mg/kg) it was “Activity was absent”. Further, the “effect on apomorphine-induced stereotypy” value in series [11] is recorded as “no effect”.
As to `CN(C)c1ccc(P(=O)(CC(=O)NN)OCCCl)cc1` (stereo not drawn) [CAPAH hydrochloride], in “Solubility” (water), the water solubility entry is given as “high water solubility”.
For `CN(C)CCCN1c2ccccc2CCc2ccccc21` [Melipramine, reference compound], in series [1] (6-fold injection), the “Average latence of avoidance period” value stood at 11.8 ± 1.5 and the “Percent of nonavoidance” value was 29%. In addition, in series [1] (12-fold injection), the “Average latence of avoidable period” value was found to be 9.2 ± 1.1 and the “Percent of nonavoidance” value stood at 11%. Also, in [1] (single injection), the “Average latence of avoidable period” value was found to be 13.5 ± 1.8 and the “Percent of nonavoidance” value turned out to be 43%.
As to `CN(C)c1ccc(P(=O)(CC(=O)NN=Cc2ccccc2O)OCCCl)cc1` (stereo not drawn) [N^β -o-hydroxybenzylidene], in “Solubility”, the “solubility compared with the compound described under (A)” value is “similar”.
For the compound `CC=CC=NNC(=O)CP(=O)(OCCCl)c1ccc(N(C)C)cc1` (stereo not drawn) [Example 5(A), N^β -(but-2-enylidene)-(2-chloroethoxy)-(p-N,N-dimethylaminophenyl)phosphinylacetohydrazide], the “solubility in dimethyl sulphoxide and other aprotic polar solvents” value in the series “Solubility” (dimethyl sulphoxide and other aprotic polar solvents) is “soluble in dimethyl sulphoxide and other aprotic polar solvents”. Also, the “solubility in most organic solvents and in water” value in “Solubility” (most organic solvents and water) is given as “poorly soluble”.
On to `NC(=O)CN1CCCC1=O` [Piracetam, reference compound], for which the “Latency (sec ± SEM), scopolamine induced amnesia” value in [8] (100 mg/kg) was 73 ± 24 s. Further, the “Latency (sec ± SEM), hypoxia induced amnesia” value in the series with hypoxia induced amnesia (100 mg/kg) is 107 ± 19 s.
On to `NNC(=O)CP(=O)(c1ccccc1)c1ccccc1` [DPAH, diphenylphosphinylacetohydrazide, reference compound], for which the “properties of DPAH” value in series [12] is “vegetropic, anti-epileptic and anti-serotonin properties”. In addition, in [9], the LD50 is 315 ± 24.8 mg/kg, the MTD is 200 mg/kg and the LD100 turned out to be 500 mg/kg.
For the compound `CN(C)c1ccc(P(=O)(CC(=O)NN=CC=Cc2ccccc2)OCCCl)cc1` (stereo not drawn) [N^β -cinnamaylidene], the “solubility compared with the compound described under (A)” value in “Solubility” is “similar”.
As for `CN(C)c1ccc(P(=O)(CC(=O)NN=Cc2cccc([N+](=O)[O-])c2)OCCCl)cc1` (stereo not drawn) [N^β -m-nitrobenzylidene], the “solubility compared with the compound described under (A)” value in “Solubility” was “similar”.
